In patent publication US5386832A, “Liver function breath test using aromatic amino acids” (New England Deaconess Hospital, priority 1993, dated 1995):
“And” between values parts separate entries of the source, which are not always exact repeats. Equal entries are not always repeated.

System: liver function
Test: breath test: oral 13C-phenylalanine, labeled CO2 in expired breath
Assay type: in vivo, patient
Conditions: 100 mg oral; for maximum percent dose oxidized within 10 minutes / cumulative percent dose oxidized: group mean; for cumulative percent dose oxidized: 1 hr; for Max. % Dose Oxidized/10 min. / Cumulative 1 hr % Dose Oxidized: overnight fast; for Max. % Dose Oxidized/10 min.: breath every ten minutes for one hour; for Cumulative 1 hr % Dose Oxidized: over one hour
Text: All of the participants in the test are first required to fast overnight. This minimizes metabolic effects of meal absorption and the contribution of endogenous label appearing in the breath from natural levels of the endogenous isotope in the diet. While the preferred isotope for use in the test is ^13 C, other carbon isotopes (or even nitrogen isotopes) could be used. At least two baseline breath samples are collected and the mean isotope value in these samples is used as a background. This background is subtracted from the ^13 C levels determined following isotopic administration in order to obtain the change in ^13 C level.
All breath samples, both those collected prior to administration of the isotope and those after administration, are collected with a commercially available breath sampler such as a Quintron AlveoSampler. These samplers have a mouthpiece and a collection bag with a one-way valve there between. The breath samples are trapped in a syringe and the contents of the syringe are injected into a […] evacuation tube such as a Exetainer tube.
In the preferred mode of the invention, ^13 C-phenylalanine is used as the isotope tracer. One hundred mg doses of L-1-^13 C-phenylalanine are dissolved in 50 ml of water and the dose is administered orally. The dose bottle is washed with another 50ml of water and the wash is administered to the patient to make sure that all the phenylalanine was released from the dose bottle. Although intravenous or intramuscular administration of the isotope tracer could be used, the oral dose acts sufficiently and is much easier to administer.
Breath samples are collected every ten minutes for one hour after dosage. The amount of labeled isotope is measured using an isotope ratio mass spectrometer such a Europa Scientific Gas Isotope Ratio Mass Spectrometer (Europa Scientific, Inc., Cincinnati, Ohio). The ratio of ^13 C-CO2 to ^12 C-CO2 (mass ratio 45:44) is measured and compared to a reference CO2 tank. The reference CO2 is calibrated to the international PDB standard and the amount of labeled ^13 C is determined by the following formula
The mean Atom % ^13 C values are subtracted to determine the Atom % Excess ^13 C. The % Dose Oxid (or percent dose oxidized) is calculated from formulas 2 and 3.
Total ^13 C Excreted[…]%^13 C(from AUC)×5×(time in
min.)×Body Surface Area (m^2) (2)
% Dose Oxid=Total ^13 C Excreted/Dose (mmoles)×100% (3)
Two groups of subjects were used to test the efficacy of the present system. The first group contained 16 normal subjects while the second had 12 patients with various levels of liver disease.

[1] = 12 patients with liver disease, P<0.05 vs control
[2] = control group, 16 normal subjects, P<0.05 vs patients
[3] = individual control (normal) subjects 1-16
[4] = individual patients 17-28 with liver disease

maximum percent dose oxidized within 10 minutes [1]: 0.50±0.27%
cumulative percent dose oxidized [1]: 1.82±0.93%
maximum percent dose oxidized within 10 minutes [2]: 2.15±0.84%
cumulative percent dose oxidized [2]: 7.62±2.87%
SMILES: N[C@@H](Cc1ccccc1)[13C](=O)O [L-1-^13 C-phenylalanine]
Max. % Dose Oxidized/10 min. [3]: 2.46% and 4.53% and 1.48% and 1.57% and 2.81% and 2.82% and 1.20% and 2.31% and 1.05% and 1.65% and 2.19% and 2.37% and 2.60% and 2.11% and 1.75%
Cumulative 1 hr % Dose Oxidized [3]: 8.56% and 15.53% and 3.96% and 6.52% and 7.14% and 9.86% and 11.12% and 3.78% and 7.34% and 4.44% and 6.21% and 7.78% and 7.71% and 7.50% and 7.57% and 6.83%
Max. % Dose Oxidized/10 min. [4]: 0.43% and 0.62% and 0.36% and 0.93% and 0.49% and 0.17% and 0.38% and 0.58% and 1.09% and 0.46%
Cumulative 1 hr % Dose Oxidized [4]: 2.16% and 2.81% and 1.25% and 2.00% and 1.59% and 0.51% and 1.29% and 1.46% and 0.61% and 2.22% and 3.88% and 2.02%
